Results reported in patent US20220128542A1, “TREATMENT EFFICIENCY EVALUATION” (TX MEDIC AB, priority 2019, published 2022).
Marks after values point to notes of the source that are not given here.

Test system: brain of rats subjected to severe traumatic brain injury (sTBI)
Experiment: HPLC of purine-pyrimidine metabolites (energy state, oxidative/nitrosative stress) in brain after sTBI (Example 1)
Format: in vivo, rat
Details: sacrifice day 7
Protocol: They were divided into three groups:
1) n=6 animals subjected to sTBI, with drug administration after 30 minutes and sacrifice at 2 days post-TBI (Acute phase 1)
2) n=6 animals subjected to sTBI, with drug administration after 30 minutes and sacrifice at 7 days post-TBI (Acute phase 2).
3) n=6 animals subjected to sTBI, with drug administration after 3 days and sacrifice at 7 days post-TBI (Chronic phase).
The drug treatment was a subcutaneous injection of 0.5 ml of LMW-DS (15 mg/kg) and administered according to the aforementioned schematic protocol.
After the wet weight (w.w.) determination, tissue preparation was affected as previously disclosed (Tavazzi et al., Neurosurgery. 2005; 56: 582-589; Vagnozzi et al., Neurosurgery. 2007; 61: 379-388; Tavazzi et al., Neurosurgery. 2007; 61: 390-395; Amorini et al., J Cell Mol Med. 2017; 21: 530-542.). Briefly, whole brain homogenization was performed with 7 ml of ice-cold, nitrogen-saturated, precipitating solution composed by CH3CN+10 mM KH2PO4, pH 7.40, (3:1; v:v), and using an Ultra-Turrax set at 24,000 rpm/min (Janke & Kunkel, Staufen, Germany). After centrifugation at 20,690×g, for 10 min at 4° C., the clear supernatants were saved, pellets were supplemented with 3 ml of the precipitating solution and homogenized again as described above. A second centrifugation was performed (20,690×g, for 10 min at 4° C.), pellets were saved, supernatants combined with those previously obtained, extracted by vigorous agitation with a double volume of HPLC-grade CHCl3 and centrifuged as above. The upper aqueous phases containing water-soluble low-molecular weight compounds were collected, subjected to chloroform washings for two more times (this procedure allowed the removal of all the organic solvent and of any lipid soluble compound from the buffered tissue extracts), adjusted in volumes with 10 mM KH2PO4, pH 7.40, to have ultimately aqueous 10% tissue homogenates and saved at −80° C. until assayed.
Aliquots of each deproteinized tissue samples were filtered through a 0.45 μm HV Millipore filter and loaded (200 μl) onto a Hypersil C-18, 250×4.6 mm, 5 μm particle size column, provided with its own guard column (Thermo Fisher Scientific, Rodano, Milan, Italy) and connected to an HPLC apparatus consisting of a Surveyor System (Thermo Fisher Scientific, Rodano, Milan, Italy) with a highly sensitive diode array detector (equipped with a 5 cm light path flow cell) and set up between 200 and 300 nm wavelength. Data acquisition and analysis were performed by a PC using the ChromQuest® software package provided by the HPLC manufacturer.
Metabolites belonging to the purine-pyrimidine profiles (listed below) and related to tissue energy state, mitochondrial function and relative to oxidative-nitrosative stresses were separated, in a single chromatographic run, according to slight modifications of existing ion-pairing HPLC methods (Lazzarino et al., Anal Biochem. 2003; 322: 51-59; Tavazzi et al., Clin Biochem. 2005; 38: 997-1008). Assignment and calculation of the compounds of interest in chromatographic runs of tissue extracts were carried out at the proper wavelengths (206, 234 and 260 nm) by comparing retention times, absorption spectra and areas of peaks with those of peaks of chromatographic runs of freshly-prepared ultra-pure standard mixtures with known concentrations. […]

[1] = Acute phase 2: 15 mg/kg s.c. 30 min post-sTBI
[2] = Chronic phase: 15 mg/kg s.c. 3 days post-sTBI

## sodium salt of dextran sulfate [LMW-DS]
[1]
  NO2 brain concentration: 226.40 ± 30.95^b nmol/g (w.w.)
  NO3 brain concentration: 198.56 ± 25.93^e, i nmol/g (w.w.)
  UDP brain concentration: 40.38 ± 8.50^a, i nmol/g (w.w.)
  UDP-Gal brain concentration: 145.14 ± 27.76 nmol/g (w.w.)
  UDP-GalNac brain concentration: 19.90 ± 3.12^a, e nmol/g (w.w.)
  UDP-Glc brain concentration: 44.44 ± 7.59^j nmol/g (w.w.)
  UDP-GlcNac brain concentration: 130.65 ± 28.41^a nmol/g (w.w.)
  UMP brain concentration: 138.73 ± 32.01^b nmol/g (w.w.)
  UTP brain concentration: 146.71 ± 32.68^e nmol/g (w.w.)
  acetyl-CoA brain concentration: 36.86 ± 4.11^e nmol/g (w.w.)
  adenine brain concentration: 58.16 ± 6.36^a, f nmol/g (w.w.)
  ascorbic acid brain concentration: 3512.58 ± 224.62^a, e nmol/g (w.w.)
  creatinine brain concentration: 37.27 ± 5.82^a, e, j nmol/g (w.w.)
  cytidine brain concentration: 16.18 ± 4.21^e nmol/g (w.w.)
  cytosine brain concentration: 15.70 ± 4.10^f nmol/g (w.w.)
  guanine brain concentration: 4.73 ± 1.07 nmol/g (w.w.)
  guanosine brain concentration: 17.90 ± 3.24^j nmol/g (w.w.)
  hypoxanthine brain concentration: 12.90 ± 2.58^a, j nmol/g (w.w.)
  inosine brain concentration: 85.52 ± 20.36^e nmol/g (w.w.)
  malonyl-CoA brain concentration: 11.29 ± 2.27^b nmol/g (w.w.)
  orotic acid brain concentration: 13.34 ± 3.65^a nmol/g (w.w.)
  thymidine brain concentration: 0.49 ± 0.20^f nmol/g (w.w.)
  uracil brain concentration: 19.40 ± 7.52^a, e nmol/g (w.w.)
  uric acid brain concentration: 19.17 ± 2.15^a, h, i nmol/g (w.w.)
  uridine brain concentration: 63.02 ± 9.66^b, e nmol/g (w.w.)
  xanthine brain concentration: 10.41 ± 2.11^f nmol/g (w.w.)
  β-pseudouridine brain concentration: 13.26 ± 3.16^a, e, j nmol/g (w.w.)
[2]
  ADO brain concentration: 89.97 ± 12.98^a nmol/g (w.w.)
  ADP brain concentration: 315.53 ± 46.53^a nmol/g (w.w.)
  ADP-ribose brain concentration: 173.94 ± 8.45^a nmol/g (w.w.)
  AMP brain concentration: 90.01 ± 21.24^a nmol/g (w.w.)
  ATP brain concentration: 1381.03 ± 212.64^a nmol/g (w.w.)
  CDP brain concentration: 23.55 ± 6.45^a nmol/g (w.w.)
  CDP choline brain concentration: 8.37 ± 2.19 nmol/g (w.w.)
  CMP brain concentration: 20.51 ± 3.73^a, f nmol/g (w.w.)
  CTP brain concentration: 25.23 ± 2.93^a, f nmol/g (w.w.)
  CoA-SH brain concentration: 27.58 ± 6.24^f nmol/g (w.w.)
  GDP brain concentration: 173.05 ± 28.68^a, e nmol/g (w.w.)
  GDP glucose brain concentration: 43.85 ± 5.06^b nmol/g (w.w.)
  GMP brain concentration: 148.56 ± 31.21^a nmol/g (w.w.)
  GSH brain concentration: 2608.67 ± 358.07^a, e nmol/g (w.w.)
  GSSG brain concentration: 231.08 ± 44.34^b, f nmol/g (w.w.)
  GTP brain concentration: 290.92 ± 34.68^a, f nmol/g (w.w.)
  IMP brain concentration: 99.29 ± 13.82^a nmol/g (w.w.)
  MDA brain concentration: 11.62 ± 3.90^a, e nmol/g (w.w.)
  NAA brain concentration: 6375.36 ± 974.12^a, e nmol/g (w.w.)
  NADH brain concentration: 11.78 ± 3.32^e nmol/g (w.w.)
  NADPH brain concentration: 7.34 ± 2.65^f nmol/g (w.w.)
  NADP^+ brain concentration: 16.44 ± 2.66^a, f nmol/g (w.w.)
  NAD^+ brain concentration: 301.13 ± 29.90^a nmol/g (w.w.)
  NO2 brain concentration: 217.67 ± 55.04^a nmol/g (w.w.)
  NO3 brain concentration: 241.27 ± 18.84^e nmol/g (w.w.)
  UDP brain concentration: 57.40 ± 5.88^a, f nmol/g (w.w.)
  UDP-Gal brain concentration: 122.29 ± 12.15 nmol/g (w.w.)
  UDP-GalNac brain concentration: 21.84 ± 2.80^a, e nmol/g (w.w.)
  UDP-Glc brain concentration: 35.79 ± 3.45^b nmol/g (w.w.)
  UDP-GlcNac brain concentration: 129.42 ± 15.88^b nmol/g (w.w.)
  UMP brain concentration: 103.11 ± 29.79 nmol/g (w.w.)
  UTP brain concentration: 136.80 ± 33.25^f nmol/g (w.w.)
  acetyl-CoA brain concentration: 35.68 ± 6.55^e nmol/g (w.w.)
  adenine brain concentration: 52.94 ± 8.59^a, f nmol/g (w.w.)
  ascorbic acid brain concentration: 3375.03 ± 856.41^a, e nmol/g (w.w.)
  creatinine brain concentration: 51.25 ± 10.17^a, f nmol/g (w.w.)
  cytidine brain concentration: 14.71 ± 2.83^e nmol/g (w.w.)
  cytosine brain concentration: 15.58 ± 2.50^b, f nmol/g (w.w.)
  guanine brain concentration: 5.31 ± 1.04^b nmol/g (w.w.)
  guanosine brain concentration: 28.87 ± 7.60^a, f nmol/g (w.w.)
  hypoxanthine brain concentration: 17.97 ± 4.49^a nmol/g (w.w.)
  inosine brain concentration: 105.81 ± 25.57^f nmol/g (w.w.)
  malonyl-CoA brain concentration: 10.00 ± 1.95^b nmol/g (w.w.)
  orotic acid brain concentration: 12.05 ± 1.50^a nmol/g (w.w.)
  thymidine brain concentration: 0.71 ± 0.11 nmol/g (w.w.)
  uracil brain concentration: 16.57 ± 2.99^a, f nmol/g (w.w.)
  uric acid brain concentration: 27.77 ± 3.60^a nmol/g (w.w.)
  uridine brain concentration: 63.28 ± 3.37^f nmol/g (w.w.)
  xanthine brain concentration: 9.35 ± 0.83^f nmol/g (w.w.)
  β-pseudouridine brain concentration: 18.62 ± 2.80^a nmol/g (w.w.)
